Tests used:
male Wistar rats = assay: elevated plus-maze; type: in vivo, rat
From the text: The elevated plus-maze was developed for screening anxiolytic and anxiogenic drug effects in the rat (Pellow et al., 1985). The method has been validated behaviorally, physiologically, and pharmacologically. The plus-maze consists of two open arms and two enclosed arms. […] Conversely, anxiogenic compounds like yohimbin or amphetamines reduce open arm entries and time spent in the open arms.
Male Wistar rats weighing 250-300 g were group housed in a normal 12:12 light-dark cycle with light on at 0800 hr and provided food and water ad libitum. The plus-maze consisted of two open arms, 50 cm long, 10 cm wide, […]. The two closed arms had the same dimensions but included a roof. The Plexiglas for the closed arms was painted black. Each pair of arms was arranged opposite to each other to form the plus-maze. The maze was elevated to a height of 50 cm. Eighteen animals were tested in the plus-maze 90 min following the IP injection of 1.0 μg/kg CLAV, 50 or vehicle control in a volume of ca. 0.3 ml. The order of treatments was counter balanced with at least 48 hrs between injections. At the start of the experiment, the animal was placed at the end of one of the open arms. Over a five min observation period, animals were scored for the latency to enter the closed arm, time spent in the closed arm and the number of open arm entries following the first occupation of the closed arm. The study produced tables of repeated measures. The data between treatments were compared with a two-way, repeated measures ANOVA followed by Bonferroni post hoc tests.
Chlordiazepoxide (Librium®) is a commonly prescribed anxiolytic that has been thoroughly characterized in preclinical studies. The effective anxiolytic dose in the plus-maze is 10-25 mg/kg (Lister 1987; File and Aranko 1988; Shumsky and Lucki 1994). […] However, it was discovered animals develop a tolerance to the motor depression with repeated daily administration of CDP for several days (Shumsky and Lucki 1994). […] While CLAV has no effect on motor activity it was necessary to treat an equal number of rats with daily injections of CLAV (100 ng/kg) to insure a balanced experimental design. In addition there was a third group of rats (n=6) receiving daily injections of saline vehicle. The study reported in Section II tested CLAV at 1 μg/kg in the plus-maze. […] For this reason CLAV was tested at 100 ng/kg in these studies.

rats = assay: Morris water maze, spatial navigation; type: in vivo, rat
From the text: The Morris water maze was developed to test spatial memory (Morris, 1984). The pool is divided into quadrants usually designated North, South, East and West. The water in the pool is made opaque with milk powder. Hidden just beneath the surface in one of the quadrants is a platform that serves as a escape route for rodents placed into the pool. An animal is placed some where in the pool from a variety of different start points and is timed for latency to find the platform, percent time spent in each quadrant, distance traveled and swimming speed. The animals have no visual or spatial cues in the pool and must rely on extra-maze cues, i.e., objects set up outside the pool that can be seen by the swimming animal. Through a series of trials a rat develops “place learning” or knowledge about the position of the platform based upon the extra-maze cues. The platform can be moved to a different quadrant each day combining spatial memory with working memory. This paradigm involves extinction of the prior memory and resolution of a new spatial problem.
The water maze consisted of a black plastic circular pool ca. 150 cm in diameter and 54 cm in height filled to a level of 35 cm with water made opaque with powdered milk. The pool was divided into four quadrants with a platform 10 cm in diameter submerged 2 cm below the surface in the northwest quadrant. The water was maintained at a temperature of 25° C. Around the pool were several visual cues. Above the pool was a video camera for tracking the movement of the experimental animal. The data collection was completely automated using the software developed by HVS Image (Hampton, UK). Before testing, rats were familiarized with the pool and platform placed in the northwest quadrant. Each day for 4 consecutive days, animals were placed into pool at random sites and given two min to find the platform. […] Following these familiarization trials, animals were tested for spatial navigation. The first day of testing began with the platform in the expected northwest quadrant. All behavior was videotaped for a two min observation period. After testing the animal were dried off and placed back into their home cage. On each subsequent day the platform was moved to a new quadrant and the rat started at different positions. The rat was always placed into the pool facing the sidewall. The start positions relative to the platform were different for each of the four trials; however, the platform was always in the same relative position in each quadrant. It was positioned 20 cm in from the side of the pool and in the left corner from the center facing out. The latency to find the hidden platform, path length, swim rate, and quadrant times between CLAV and vehicle treated animals were compared with a two-way, repeated measures ANOVA followed by Bonferroni post hoc tests.

[1] = 1.0 μg/kg IP, 90 min, vs vehicle
[2] = daily IP 7 days, CLAV 100 ng/kg, CDP 10 mg/kg, vs vehicle

Row | SMILES | activity in the plus-maze (summary) (male Wistar rats; 1 μg/kg) | latency to enter the dark (closed arm) (male Wistar rats; [1]) | open arm entries (male Wistar rats; [1]) | time spent in the open arm (male Wistar rats; [1]) | open arm entries (male Wistar rats; daily IP 7 days, CLAV 100 ng/kg, CDP 10 mg/kg) | latency to enter the dark closed arms (male Wistar rats; [2]) | time spent exposed to light in the open arms (male Wistar rats; [2]) | path length to find the platform (rats; 1.0 μg/kg, Day 1, vs vehicle) | percentage of time spent in each quadrant vs vehicle (rats; 1.0 μg/kg, any quadrant on any day) | latency to find the platform, main effect (rats; 1.0 μg/kg, one hr before testing, 4 days) | latency to find the platform on Days 1 and 4 (rats; 1.0 μg/kg, trend towards significance) | learning and memory (summary) (rats; spatial and cue navigation) | anxiolytic action (male Wistar rats; i.p. at 50 micrograms/kg, rats) | spatial learning (rats; i.p. at 50 micrograms/kg, rats)
1 | O=C(O)[C@H]1/C(=C/CO)O[C@@H]2CC(=O)N21 [CLAV, clavulanic acid] | anxiolytic activity | stayed in the starting open light position longer | increased movement into the lighted open arms | significantly increased | no significant difference between treatments | significantly greater | significantly greater | traveled a much shorter distance | no significant difference between treatments | no main effect for drug treatment | shorter latencies | do not show any loss in learning and memory | – | –
2 | CO[C@@]1(NC(=O)C(C(=O)O)c2ccc(O)cc2)C(=O)N2C(C(=O)O)=C(CSc3nnnn3C)CO[C@@H]21 (stereo partly drawn) [Moxalactam, 7-β-[2-carboxy-2-(4-hydroxyphenyl)acetamido]-7α-methoxy-3-[[(1-methyl-1H-tetrazol-5-yl)thio]methyl]-1-oxa-1-dethia-3-cephem-4-carboxylic acid] | – | – | – | – | – | – | – | – | – | – | – | – | acts as an anxiolytic in rats | enhances spatial learning in rats
